In ChEMBL document CHEMBL6127102 (Bioorg Med Chem, 2024):
The source made the active and inactive calls. The rule behind the calls is not given here.

Key:
[1] = test system: MDA-MB-231; experiment: Antitumor activity against human MDA-MB-231 cells harboring wild-type BRCA incubated for 72 hrs by MTT assay; assay type: functional, cell-based; settings: MDA-MB-231, 72 h
[2] = test system: MDA-MB-468; experiment: Antitumor activity against human MDA-MB-468 cells harboring wild-type BRCA incubated for 72 hrs by MTT assay; assay type: functional, cell-based; settings: MDA-MB-468, 72 h
[3] = test system: HCC1937; experiment: Antitumor activity against BRCA 1-deficient human HCC1937 cells incubated for 72 hrs by MTT assay; assay type: functional, cell-based; settings: HCC1937, 72 h
[4] = test system: MDA-MB-436; experiment: Antitumor activity against BRCA 1-deficient human MDA-MB-436 cells incubated for 72 hrs by MTT assay; assay type: functional, cell-based; settings: MDA-MB-436, 72 h
[5] = Cytotoxicity against human MCF-10A cells incubated for 72 hrs by MTT assay; assay type: toxicity, cell-based
[6] = test system: MDA-MB-231; experiment: Induction of apoptosis in human MDA-MB-231 cells as increase in red fluorescence at 5 uM incubated for 24 hrs by Calcein AM/PI staining based confocal microscopy; assay type: functional, cell-based
[7] = test system: MDA-MB-231; experiment: Effect on RAF expression in human MDA-MB-231 cells at 5 uM incubated for 24 hrs by Western blot analysis; assay type: functional, cell-based
[8] = test system: MDA-MB-231; experiment: Effect on CRAF expression in human MDA-MB-231 cells at 5 uM incubated for 24 hrs by Western blot analysis; assay type: functional, cell-based
[9] = test system: MDA-MB-231; experiment: Effect on MEK phosphorylation in human MDA-MB-231 cells at 5 uM incubated for 24 hrs by Western blot analysis; assay type: functional, cell-based
[10] = test system: MDA-MB-231; experiment: Effect on ERK1/2 phosphorylation in human MDA-MB-231 cells at 5 uM incubated for 24 hrs by Western blot analysis; assay type: functional, cell-based
[11] = test system: MDA-MB-231; experiment: Induction of DNA damage in human MDA-MB-231 cells assessed as increase in olive tail moments at 5 uM incubated for 24 hrs by Comet assay; assay type: functional, cell-based
[12] = test system: MDA-MB-231; experiment: Induction of ROS generation in human MDA-MB-231 cells at 5 uM incubated for 24 hrs by DCFH-DA staining based flow cytometric analysis; assay type: functional, cell-based
[13] = target: Poly [ADP-ribose] polymerase 1 (Homo sapiens, UniProt P09874); experiment: Inhibition of PARP1 (unknown origin) using histone as substrate incubated for 60 mins by ELISA
[14] = test system: MDA-MB-231; experiment: Induction of DNA damage in human MDA-MB-231 cells assessed as increase in gamma-H2AX level at 5 uM incubated for 24 hrs by immunofluorescence based analysis; assay type: functional, cell-based
[15] = test system: MDA-MB-231; experiment: Induction of apoptosis in human MDA-MB-231 cells at 5 uM incubated for 24 hrs by Annexin V-FITC/PI staining based flow cytometry relative to control; assay type: functional
[16] = Induction of depolarization of mitochondrial membrane potential in human MDA-MB-231 cells at 5 uM incubated for 24 hrs by JC-1 staining based flow cytometry relative to control; assay type: functional
[17] = test system: MDA-MB-231; experiment: Anti-migration activity in human MDA-MB-231 cells assessed as wound closure area at 1 uM incubated for 24 hrs by wound healing assay (reference value: 75.6 %); assay type: functional
[18] = test system: MDA-MB-231; experiment: […] activity in human MDA-MB-231 cells at 1 uM incubated for 24 hrs by wound healing assay; assay type: functional, cell-based
[19] = test system: MDA-MB-231; experiment: Induction of apoptosis in human MDA-MB-231 cells assessed as increase in Bax level at 5 uM incubated for 24 hrs by Western blot analysis; assay type: functional, cell-based
[20] = test system: MDA-MB-231; experiment: Induction of apoptosis in human MDA-MB-231 cells assessed as decrease in Bcl-2 level at 5 uM incubated for 24 hrs by Western blot analysis; assay type: functional, cell-based
[21] = test system: MDA-MB-231; experiment: Effect on total MEK in human MDA-MB-231 cells at 5 uM incubated for 24 hrs by Western blot analysis; assay type: functional, cell-based
[22] = test system: MDA-MB-231; experiment: Effect on total ERK1/2 in human MDA-MB-231 cells at 5 uM incubated for 24 hrs by Western blot analysis; assay type: functional, cell-based
[23] = test system: MDA-MB-231; experiment: Anti-migration activity in human MDA-MB-231 cells at 1 uM incubated for 24 hrs by wound healing assay; assay type: functional, cell-based
[24] = test system: MDA-MB-231; experiment: Induction of apoptosis in human MDA-MB-231 cells assessed as increase in cleaved PARP level at 5 uM incubated for 24 hrs by Western blot analysis; assay type: functional, cell-based
[25] = test system: MDA-MB-231; experiment: Induction of apoptosis in human MDA-MB-231 cells assessed as increase in cleaved caspase-3 level at 5 uM incubated for 24 hrs by Western blot analysis; assay type: functional, cell-based
[26] = test system: MDA-MB-231; experiment: Induction of apoptosis in human MDA-MB-231 cells assessed as increase in cleaved caspase-9 level at 5 uM incubated for 24 hrs by Western blot analysis; assay type: functional, cell-based
[27] = test system: MDA-MB-231; experiment: Antitumor activity against human MDA-MB-231 cells xenografted in BALB/c nude mouse at 23 mg/kg, ip administered on every 2 days for 28 days relative to control; assay type: functional; settings: MDA-MB-231, 672 h, time 28 day, read-out: TGI
[28] = test system: MDA-MB-231; experiment: Antitumor activity against human MDA-MB-231 cells xenografted in BALB/c nude mouse at 23 mg/kg, ip administered on every 2 days for 28 days in presence of Olaparib relative to control; assay type: functional; settings: MDA-MB-231, 672 h, time 28 day, read-out: TGI
[29] = Toxicity in BALB/c nude mouse xenografted with human MDA-MB-231 cells assessed as body weight change at 23 mg/kg, ip administered on every 2 days for 28 days; assay type: organism-based; settings: in vivo, 672 h, time 28 day
[30] = Toxicity in BALB/c nude mouse xenografted with human MDA-MB-231 cells assessed as body weight change at 23 mg/kg, ip administered on every 2 days for 28 days in presence of Olaparib; assay type: organism-based; settings: in vivo, 672 h, time 28 day
[31] = Toxicity in BALB/c nude mouse xenografted with human MDA-MB-231 cells assessed as drug tolerance at 23 mg/kg, ip administered on every 2 days for 28 days; assay type: organism-based; settings: in vivo, 672 h, time 28 day
[32] = Toxicity in BALB/c nude mouse xenografted with human MDA-MB-231 cells assessed as drug tolerance at 23 mg/kg, ip administered on every 2 days for 28 days in presence of Olaparib; assay type: organism-based; settings: in vivo, 672 h, time 28 day
[33] = test system: MDA-MB-231; experiment: Antitumor activity against human MDA-MB-231 cells xenografted in BALB/c nude mouse assessed as increase in apoptotic cells at 23 mg/kg, ip administered on every 2 days for 28 days by H and E staining based analysis; assay type: functional, organism-based; settings: time 28.0 day
[34] = test system: MDA-MB-231; experiment: Antitumor activity against human MDA-MB-231 cells xenografted in BALB/c nude mouse assessed as increase in necrotic cells at 23 mg/kg, ip administered on every 2 days for 28 days by H and E staining based analysis; assay type: functional, organism-based; settings: time 28.0 day
[35] = test system: MDA-MB-231; experiment: Antitumor activity against human MDA-MB-231 cells xenografted in BALB/c nude mouse assessed as decrease in Ki-67 expression at 23 mg/kg, ip administered on every 2 days for 28 days by H and E staining based analysis; assay type: functional, organism-based; settings: time 28.0 day
[36] = test system: MDA-MB-231; experiment: Antitumor activity against human MDA-MB-231 cells xenografted in BALB/c nude mouse assessed as increase in apoptotic cells at 23 mg/kg, ip administered on every 2 days for 28 days in presence of Olaparib by H and E staining based analysis; assay type: functional, organism-based; settings: time 28.0 day
[37] = test system: MDA-MB-231; experiment: Antitumor activity against human MDA-MB-231 cells xenografted in BALB/c nude mouse assessed as increase in necrotic cells at 23 mg/kg, ip administered on every 2 days for 28 days in presence of Olaparib by H and E staining based analysis; assay type: functional, organism-based; settings: time 28.0 day
[38] = test system: MDA-MB-231; experiment: Antitumor activity against human MDA-MB-231 cells xenografted in BALB/c nude mouse assessed as decrease in Ki-67 expression at 23 mg/kg, ip administered on every 2 days for 28 days in presence of Olaparib by H and E staining based analysis; assay type: functional, organism-based; settings: time 28.0 day
[39] = Toxicity in BALB/c nude mouse xenografted with human MDA-MB-231 cells assessed as body weight change at 20 mg/kg, ip administered on every 2 days for 28 days; assay type: organism-based; settings: in vivo, 672 h, time 28 day
[40] = Toxicity in BALB/c nude mouse xenografted with human MDA-MB-231 cells assessed as drug tolerance at 20 mg/kg, ip administered on every 2 days for 28 days; assay type: organism-based; settings: in vivo, 672 h, time 28 day
[41] = test system: MDA-MB-231; experiment: Antitumor activity against human MDA-MB-231 cells xenografted in BALB/c nude mouse assessed as increase in apoptotic cells at 20 mg/kg, ip administered on every 2 days for 28 days by H and E staining based analysis; assay type: functional, organism-based; settings: time 28.0 day
[42] = test system: MDA-MB-231; experiment: Antitumor activity against human MDA-MB-231 cells xenografted in BALB/c nude mouse assessed as increase in necrotic cells at 20 mg/kg, ip administered on every 2 days for 28 days by H and E staining based analysis; assay type: functional, organism-based; settings: time 28.0 day
[43] = test system: MDA-MB-231; experiment: Antitumor activity against human MDA-MB-231 cells xenografted in BALB/c nude mouse assessed as decrease in Ki-67 expression at 20 mg/kg, ip administered on every 2 days for 28 days by H and E staining based analysis; assay type: functional, organism-based; settings: time 28.0 day

Poly [ADP-ribose] polymerase 1, sequence (P09874 whole entry): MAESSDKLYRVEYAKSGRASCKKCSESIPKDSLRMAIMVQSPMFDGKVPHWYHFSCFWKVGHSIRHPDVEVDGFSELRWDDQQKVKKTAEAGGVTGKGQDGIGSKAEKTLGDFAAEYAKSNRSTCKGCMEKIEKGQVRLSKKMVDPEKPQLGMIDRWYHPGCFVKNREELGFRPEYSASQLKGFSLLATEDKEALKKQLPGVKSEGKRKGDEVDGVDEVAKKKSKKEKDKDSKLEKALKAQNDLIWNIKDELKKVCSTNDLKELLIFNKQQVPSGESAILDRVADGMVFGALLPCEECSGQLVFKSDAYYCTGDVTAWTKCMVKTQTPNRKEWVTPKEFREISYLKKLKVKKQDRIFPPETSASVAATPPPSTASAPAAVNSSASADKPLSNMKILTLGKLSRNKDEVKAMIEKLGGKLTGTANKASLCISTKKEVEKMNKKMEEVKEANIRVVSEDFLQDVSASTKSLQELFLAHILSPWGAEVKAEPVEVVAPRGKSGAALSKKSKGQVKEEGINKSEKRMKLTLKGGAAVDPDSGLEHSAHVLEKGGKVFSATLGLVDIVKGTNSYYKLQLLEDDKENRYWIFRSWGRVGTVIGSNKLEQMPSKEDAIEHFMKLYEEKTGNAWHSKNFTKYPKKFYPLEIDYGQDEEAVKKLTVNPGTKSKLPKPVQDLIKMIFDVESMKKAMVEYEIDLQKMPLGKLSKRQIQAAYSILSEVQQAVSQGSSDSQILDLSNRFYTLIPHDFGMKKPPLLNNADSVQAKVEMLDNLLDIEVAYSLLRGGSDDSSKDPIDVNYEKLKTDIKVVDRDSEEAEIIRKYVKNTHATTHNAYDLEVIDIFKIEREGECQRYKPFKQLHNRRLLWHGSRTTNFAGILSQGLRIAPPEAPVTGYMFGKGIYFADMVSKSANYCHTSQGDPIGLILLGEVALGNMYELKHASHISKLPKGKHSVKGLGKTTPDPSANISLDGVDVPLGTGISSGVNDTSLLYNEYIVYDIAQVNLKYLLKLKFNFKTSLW

SMILES | IC50 [1] [µM] | IC50 [2] [µM] | IC50 [3] [µM] | IC50 [4] [µM] | IC50 at 72 h [5] [µM] | Activity [6] | Activity [7] | Activity [8] | Activity [9] | Activity [10] | Activity [11] | Activity [12] | Activity [14] | Activity [15] [%] | Activity [16] [%] | Activity [18] | Activity [19] | Activity [20] | further results
O=C(c1cc(Cc2n[nH]c(=O)c3ccccc23)ccc1F)N1CCNCC1 | 21 | 12.3 | 3.21 | 2.61 | > 40 | inactive | inactive | inactive | inactive | inactive | inactive | inactive | inactive | 21.14 | 23.88 | inactive | Active | Active | IC50 [13]: 0.0395 µM; Activity [17]: 66.1%
COc1cc(OC)c(/C=C/S(=O)(=O)Cc2ccc(OC)c(NCCCC(=O)O)c2)c(OC)c1 | 1.87 | 2.33 | 1.08 | 2.11 | 30.6 | Active | inactive | Active | Active | Active | Active | Active | Active | 31.1 | 31.56 | Active | Active | Active | Activity [21]: inactive; Activity [22]: inactive; Activity [23]: Active; Activity [24]: Active; Activity [25]: Active; Activity [26]: Active; inhibition in vivo at 23 mg/kg [27]: 51.8%; inhibition in vivo at 23 mg/kg [28]: 56.7%; Activity [29]: Non-Toxic; Activity [30]: Non-Toxic; Activity [31]: Non-Toxic; Activity [32]: Non-Toxic; Activity [33]: Active; Activity [34]: Active; Activity [35]: Active; Activity [36]: Active; Activity [37]: Active; Activity [38]: Active
COc1cc(OC)c(/C=C/S(=O)(=O)Cc2ccc(OC)c(NCC(=O)O)c2)c(OC)c1 [RIGOSERTIB] | 0.23 | 0.45 | 0.33 | 0.25 | 18.4 | – | – | – | – | – | – | – | – | – | – | – | – | – | –
O=C(c1cc(Cc2n[nH]c(=O)c3ccccc23)ccc1F)N1CCN(C(=O)C2CC2)CC1 [OLAPARIB] | 25.5 | 14.8 | 5.37 | 4.25 | > 40 | – | – | – | – | – | – | – | – | – | – | – | – | – | Activity [39]: Non-Toxic; Activity [40]: Non-Toxic; Activity [41]: Active; Activity [42]: Active; Activity [43]: Active
COc1cc(OC)c(/C=C/S(=O)(=O)Cc2ccc(OC)c(NC(=O)CCCCC(=O)O)c2)c(OC)c1 | 6.94 | 6.99 | 5.29 | 7.14 | > 40 | – | – | – | – | – | – | – | – | – | – | – | – | – | –
COc1cc(OC)c(/C=C/S(=O)(=O)Cc2ccc(OC)c(NC(=O)CCC(=O)O)c2)c(OC)c1 | 2.08 | 3.19 | 2.17 | 2.09 | > 40 | – | – | – | – | – | – | – | – | – | – | – | – | – | –
